We go through 9 compounds from BindingDB's records for doi:10.1161/01.cir.102.23.2836 (Nih, 2000).

By Ki is commonly meant a measure of affinity in units of concentration, obtained from inhibition or displacement.

Where “and” joins values, the source holds several entries; their conditions need not be identical. Identical values can stand only once. Where only a bound is given, the exact number is not on record here.

The target of assay [1] is T1, 5-hydroxytryptamine receptor 2C (Rattus norvegicus, UniProt P08909).
T1 sequence (P08909 whole entry): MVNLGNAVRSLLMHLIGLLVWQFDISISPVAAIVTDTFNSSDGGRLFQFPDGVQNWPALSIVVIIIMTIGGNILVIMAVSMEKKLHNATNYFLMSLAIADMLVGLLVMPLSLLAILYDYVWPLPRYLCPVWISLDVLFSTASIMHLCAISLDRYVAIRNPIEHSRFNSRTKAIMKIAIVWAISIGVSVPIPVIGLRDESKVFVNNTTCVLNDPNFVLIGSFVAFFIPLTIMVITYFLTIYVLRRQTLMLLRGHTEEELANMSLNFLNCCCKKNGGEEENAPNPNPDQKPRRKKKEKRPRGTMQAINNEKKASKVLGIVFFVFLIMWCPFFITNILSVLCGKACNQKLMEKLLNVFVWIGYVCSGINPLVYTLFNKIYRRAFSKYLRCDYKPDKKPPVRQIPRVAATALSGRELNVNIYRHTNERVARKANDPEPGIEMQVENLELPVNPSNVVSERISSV

The target in assay [2] is 5-hydroxytryptamine receptor 2B (Homo sapiens, UniProt P41595).
Chain of 5-hydroxytryptamine receptor 2B (P41595 whole entry): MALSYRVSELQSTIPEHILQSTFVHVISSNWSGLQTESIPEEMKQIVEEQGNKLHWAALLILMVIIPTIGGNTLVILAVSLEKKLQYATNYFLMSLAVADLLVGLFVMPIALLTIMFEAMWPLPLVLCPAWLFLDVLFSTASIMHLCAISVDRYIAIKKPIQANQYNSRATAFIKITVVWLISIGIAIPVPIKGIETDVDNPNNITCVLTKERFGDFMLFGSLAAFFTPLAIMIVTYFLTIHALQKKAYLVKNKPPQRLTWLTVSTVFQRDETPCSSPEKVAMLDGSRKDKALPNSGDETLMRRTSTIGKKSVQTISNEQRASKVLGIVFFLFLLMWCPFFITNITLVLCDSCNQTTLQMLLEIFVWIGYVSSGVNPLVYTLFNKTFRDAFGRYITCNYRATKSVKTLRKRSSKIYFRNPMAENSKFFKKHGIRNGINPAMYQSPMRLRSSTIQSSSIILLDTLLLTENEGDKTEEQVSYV

As for `CC[C@@H](CO)NC(=O)[C@@H]1C=C2c3cccc4c3c(cn4C)C[C@H]2N(C)C1`, the Ki in assay [1] was found to be 1.8 nM. Turning to `CC(C)(N)Cc1ccccc1` [2-methyl-1-phenylpropan-2-amine], the Ki in assay [2] and in assay [1] was greater than 10000 nM throughout. In turn, `O=c1n(CCCN2CCN(c3cccc(Cl)c3)CC2)nc2ccccn12` [2-{3-[4-(3-chlorophenyl)piperazin-1-yl]propyl}[1,2,4]triazolo[4,3-a]pyridin-3(2H)-one] showed a Ki in assay [1] of 402 nM.

Regarding `CN1C[C@H](C(=O)N[C@]2(C)O[C@@]3(O)[C@@H]4CCCN4C(=O)[C@H](Cc4ccccc4)N3C2=O)C=C2c3cccc4[nH]cc(c34)C[C@H]21` [12'-hydroxy-2'-methyl-5'alpha-(phenylmethyl)ergotaman-3',6',18-trione], the inhibitory constant (Ki) in assay [2] was determined as 3 nM; in assay [1], 12 nM. Consider `CC[C@@H](CO)NC(=O)[C@@H]1C=C2c3cccc4[nH]cc(c34)C[C@H]2N(C)C1` [Methylergometrine], for which the Ki in assay [2] was 0.49 nM. For the compound `NCC[C@H](Oc1ccc(C(F)(F)F)cc1)c1ccccc1` [NORFLUOXETINE], the Ki stood at 5060 nM in assay [2] and 286 nM in assay [1]. With `CCNC(C)Cc1cccc(C(F)(F)F)c1` (stereo not drawn) [NSC_3337], in assay [1], the Ki is 3180 nM and 6250 nM and 3420 nM.

On to `C[C@H](N)Cc1cccc(C(F)(F)F)c1` [Norfenfluramine (+)], for which the Ki in assay [2] is 52.1 nM and 11.2 nM and 47.8 nM; in assay [1] it was 557 nM and 324 nM and 814 nM. The compound `Clc1cccc(N2CCNCC2)c1` [mCPP] had an inhibition constant (Ki) in assay [1] of 59 nM.
